Format in all cases: cell-based
One data set deals with T1, human CXCR4 (Homo sapiens, UniProt P61073).
T1 construct: expressed in transfected cells; host or cells: HEK-293 cells (stably expressing human macrophage scavenging receptor) transduced with human CXCR4 BacMam and Gqi5 BacMam baculovirus
Briefly: Functional FLIPR assay (block of SDF-1 alpha calcium response). Particulars: HEK-293 cells with human CXCR4 and Gqi5 BacMam; antagonism of SDF-1 alpha [Ca2+]i change; read-out: Functional assay (pIC50) (converted). As to the method:
Human embryonic kidney (HEK-293) cells were maintained and harvested as described above. Cells were plated in 96-well, black clear bottom, poly-lysine coated plates at a concentration of 40,000 cells per well in a final volume of 100 ul containing human CXCR4BacMam (MOI=25) and Gqi5 BacMam (MOI=12.5). The cells were incubated at 37° C., 5% CO2, 95% humidity for 24 h to allow for protein expression.
After the required incubation time the cells were washed once with 50 ul of fresh serum-free DMEM/F12 media containing probenicid. 50 ul of dye solution was then added to the cells (Calcium Plus Assay Kit Dye; Molecular Devices) was dissolved in 200 ml of the above probenicid/BSA containing media and incubated for 1 h. Cell plates were transferred to a Fluorometric Imaging Plate Reader (FLIPR). Upon addition the effect of the compounds on the change in [Ca^2+]i was examined to determine if the compounds were agonists or antagonists (ability to block SDF-1 alpha activity) at the CXCR4 receptor. IC50 values are determined and pKb values are calculated using the Leff and Dougall equation: KB=IC50/((2+([agonist]/EC50̂b) ̂1/b−1) Where IC50 is that defined by the antagonist concentration-response curve [agonist] is the EC80 concentration of agonist used EC50 is that defined by the agonist concentration-response curve b is the slope of the agonist concentration-response curve.

The next data set concerns HIV-1 IIIB. Nature of the data set: HOS HIV-1 infectivity assay, IIIB strain. To be noted: 96 h. As to the method:
(§1) Compounds were profiled against two HIV-1 viruses, the M-tropic (CCR5 utilizing) Ba-L strain and the T-tropic (CXCR4 utilizing) IIIB strain. Both viruses were propagated in human peripheral blood lymphocytes. Compounds were tested for there ability to block infection of the HOS cell line (expressing hCXCR4/hCCR5/hCD4/pHIV-LTR-luciferase) by either HIV-1 Ba-L or HIV-1, IIIB. Compound cytotoxicity was also examined in the absence of virus addition.
(§2) HOS cells (expressing hCXCR4/hCCR5/hCD4/pHIV-LTR-luciferase) were harvested and diluted in Dulbeccos modified Eagles media supplemented with 2% FCS and non-essential amino acid to a concentration of 60,000 cells/ml. The cells were plated into 96-well plates (100 ul per well) and the plates were placed in a tissue culture incubator (37° C.; 5% CO2/95% air) for a period of 24 h.
(§3) Subsequently, 50 ul of the desired drug solution (4 times the final concentration) was added to each well and the plates were returned to the tissue culture incubator (37° C.; 5% CO2/95% air) for 1 h. Following this incubation 50 ul of diluted virus was added to each well (approximately 2 million RLU per well of virus). The plates were returned to the tissue culture incubator (37° C.; 5% CO2/95% air) and were incubated for a further 96 h.
(§4) Following this incubation the endpoint for the virally infected cultures was quantified following addition of Steady-Glo Luciferase assay system reagent (Promega, Madison, Wis.). Cell viability or non-infected cultures was measured using a CellTiter-Glo luminescent cell viability assay system (Promega, Madison, Wis.). All luminescent readouts are performed on a Topcount luminescence detector (Packard, Meridien, Conn.).
(§5) Compounds were profiled against two HIV-1 viruses, the M-tropic (CCR5 utilizing) Ba-L strain and the T-tropic (CXCR4 utilizing) IIIB strain. Ba-L was propagated in either peripheral blood lymphocytes or SupT1/CCR5+/CXCR4+ cells. IIIB was propagated in peripheral blood lymphocytes. Compounds were tested for their ability to block infection of the HOS cell line (expressing hCXCR4/hCCR5/hCD4/pHIV-LTR-luciferase) by either HIV-1 Ba-L or HIV-1, IIIB. Compound cytotoxicity was also examined in the absence of virus addition.
(§6) HOS cells (expressing hCXCR4/hCCR5/hCD4/pHIV-LTR-luciferase) were harvested and diluted in Dulbeccos modified Eagles media supplemented with 2% FCS to a concentration of 120,000 cells/ml. The cells were plated into 96-well plates (50 μl per well) and the plates were placed in a tissue culture incubator (370° C.; 5% CO2/95% air) for a period of 24 h.
(§7) Subsequently, 50 μl of the desired drug solution (2 times the final concentration) was added to each well and the plates were returned to the tissue culture incubator (370° C.; 5% CO2/95% air) for 1 h. Following this incubation, 60 μl of diluted virus (4 times the final concentration) was added to 60 μl of 2× the final desired concentration of the compound and 100 μl of this compound/virus mix was added to each well (approximately 2 million RLU per well of virus). The plates were returned to the tissue culture incubator (370° C.; 5% CO2/95% air) and were incubated for a further 96 h.

Data set [1] is described as follows: Compound cytotoxicity in absence of virus (CellTiter-Glo). Particulars: human. As to the method:
as §1, §2, §3, §4, §5, §6, §7
(Cellular ATP, detected with luciferase, serves as a proxy for viable cell number.)

The mark [2] stands for this setting: Human immunodeficiency virus 1, IIIB, HOS, read-out: HOS (3B) (μM).
The mark [3] stands for this setting: Human immunodeficiency virus 1, T-tropic (CXCR4 utilizing) IIIB strain, HOS cells, luciferase, read-out: HOS (3B).
The mark [4] stands for this setting: HOS cells, no virus added, cell viability, read-out: Cytotox (pIC50) (converted).

16 compounds from patent publication US20090093454A1, “Chemical Compounds” (priority 2005, published 2009) can be followed below.

Structures can show the parent of a compound that is named as a salt. Where two headings read alike, the source gives them in different places. Bounds are passed on as bounds.

T1 sequence (P61073 whole entry): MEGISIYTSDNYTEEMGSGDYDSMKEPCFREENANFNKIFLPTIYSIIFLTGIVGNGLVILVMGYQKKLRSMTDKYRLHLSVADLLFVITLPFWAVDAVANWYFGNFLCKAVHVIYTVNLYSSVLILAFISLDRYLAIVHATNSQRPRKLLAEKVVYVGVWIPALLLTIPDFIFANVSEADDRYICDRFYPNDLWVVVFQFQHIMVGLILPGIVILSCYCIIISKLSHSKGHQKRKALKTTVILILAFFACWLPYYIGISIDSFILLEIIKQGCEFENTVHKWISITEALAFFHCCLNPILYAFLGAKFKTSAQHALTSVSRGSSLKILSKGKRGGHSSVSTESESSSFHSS

Regarding `c1cnc2c(c1)CC[C@H]1CCCN(Cc3nc4ccccc4[nH]3)[C@H]21` (racemic) [Example 6, (trans)-1-(1H-Benzimidazol-2-ylmethyl)-1,2,3,4,4a,5,6,10b-octahydro-1,10-phenanthroline], the figures for the IC50 at human CXCR4 and in the data set with HIV-1 IIIB (setting [2]) were 126 nM and 0.47 µM, respectively. This compound also had an IC50 at 96 h in data set [1] of 31600 nM.
For the compound `CN(C)CCCn1c(CN2CCC[C@@H]3CCc4cccnc4[C@@H]32)nc2ccccc21` [Example 11A, (3-{2-[(4aS,10bR)-3,4,4a,5,6,10b-Hexahydro-1,10-phenanthrolin-1(2H)-ylmethyl]-1H-benzimidazol-1-yl}propyl)dimethylamine], the IC50 is 851 nM at human CXCR4 and 0.53 µM in the data set with HIV-1 IIIB (setting [3]). Moreover, the IC50 at 96 h in data set [1] (setting [4]) was above 100000 nM.
In the case of `CN1CCN(c2cccc3nc(CN4CCC[C@@H]5CCc6cccnc6[C@H]54)cn23)CC1` (racemic) [Example 15A, (trans)-1-{[5-(4-Methyl-1-piperazinyl)imidazo[1,2-a]pyridin-2-yl]methyl}-1,2,3,4,4a,5,6,10b-octahydro-1,10-phenanthroline], the IC50 on human CXCR4 is 40.7 nM; in the data set on HIV-1 IIIB (setting [3]), 0.033 µM. For the same compound, the IC50 at 96 h in data set [1] (setting [4]) was above 100000 nM.
For `CN(C)CCCn1c(CN2CCC[C@H]3CCc4cccnc4[C@H]32)nc2ccccc21` [Example 11B, (3-{2-[(4aR,10bS)-3,4,4a,5,6,10b-Hexahydro-1,10-phenanthrolin-1(2H)-ylmethyl]-1H-benzimidazol-1-yl}propyl)dimethylamine] the same measures were 10.5 nM, 0.035 µM and above 100000 nM.
For the compound `CN1CCN(c2cccc3nc(CN4CCC[C@@H]5CCc6cccnc6[C@@H]54)cn23)CC1` [Example 22, (4aS,10bR)-1-{[5-(4-Methyl-1-piperazinyl)imidazo[1,2-a]pyridin-2-yl]methyl}-1,2,3,4,4a,5,6,10b-octahydro-1,10-phenanthroline], the IC50 on human CXCR4 is 31.6 nM; in the data set with HIV-1 IIIB (setting [3]), 0.1 µM. Also, the IC50 at 96 h in data set [1] (setting [4]) was above 100000 nM.
On the same counts, the results for `CN1CCN(c2cccc3nc(CN4CCC[C@H]5CCc6cccnc6[C@H]54)cn23)CC1` (racemic) [Example 15B, (cis)-1-{[5-(4-Methyl-1-piperazinyl)imidazo[1,2-a]pyridin-2-yl]methyl}-1,2,3,4,4a,5,6,10b-octahydro-1,10-phenanthroline] are 3.39 nM, 0.004 µM and above 100000 nM.
Regarding `CN1CCN(c2cccc3nc(CN4CCC[C@H]5CCc6cccnc6[C@H]54)[nH]c23)CC1` (racemic) [Example 33, (cis)-1-{[4-(4-Methyl-1-piperazinyl)-1H-benzimidazol-2-yl]methyl}-1,2,3,4,4a,5,6,10b-octahydro-1,10-phenanthroline], the IC50 on human CXCR4 was 2.4 nM; with HIV-1 IIIB (setting [3]), 0.0035 µM. In addition, in data set [1] (setting [4]), the IC50 at 96 h was 37200 nM.
On the same counts, the results for `CN(C)CCCn1c(CN2CCC[C@@H]3CCc4cccnc4[C@H]32)nc2ccccc21` (stereo in doubt) [Example 10B, (3-{2-[(4aS,10bS)-3,4,4a,5,6,10b-Hexahydro-1,10-phenanthrolin-1(2H)-ylmethyl]-1H-benzimidazol-1-yl}propyl)dimethylamine] are 93.3 nM, 0.14 µM and above 100000 nM.
On the same counts, the results for `NCCCn1c(CN2CCC[C@H]3CCc4cccnc4[C@H]32)nc2ccccc21` (racemic) [Example 9, (cis)-3-[2-(3,4,4a,5,6,10b-Hexahydro-1,10-phenanthrolin-1(2H)-ylmethyl)-1H-benzimidazol-1-yl]-1-propanamine] are 19.5 nM, 0.073 µM and 28800 nM.
For `c1cnc2c(c1)CC[C@@H]1CCCN(Cc3nc4ccccc4n3Cc3ccncc3)[C@H]21` (racemic) [Example 12, (cis)-1-{[1-(4-Pyridinylmethyl)-1H-benzimidazol-2-yl]methyl}-1,2,3,4,4a,5,6,10b-octahydro-1,10-phenanthroline] the same measures were 1050 nM, 0.77 µM and above 100000 nM.
For `CN1CCN(c2cccc3nc(CN4CCC[C@H]5CCc6cccnc6[C@H]54)cn23)CC1` [Example 27, (4aR,10bS)-1-{[5-(4-Methyl-1-piperazinyl)imidazo[1,2-a]pyridin-2-yl]methyl}-1,2,3,4,4a,5,6,10b-octahydro-1,10-phenanthroline], the IC50 at human CXCR4 is 1.26 nM; with HIV-1 IIIB (setting [3]), 0.004 µM. Besides, the IC50 at 96 h in data set [1] (setting [4]) is above 10000 nM.
As for `c1cnc2c(c1)CC[C@@H]1CCCN(Cc3nc4ccccc4[nH]3)[C@H]21` (racemic) [Example 7, (cis)-1-(1H-Benzimidazol-2-ylmethyl)-1,2,3,4,4a,5,6,10b-octahydro-1,10-phenanthroline], the IC50 is 437 nM at human CXCR4 and 1 µM with HIV-1 IIIB (setting [2]). The same compound displayed an IC50 at 96 h in data set [1] above 100000 nM.
With `NCCCn1c(CN2CCC[C@@H]3CCc4cccnc4[C@H]32)nc2ccccc21` (racemic) [Example 8, (trans)-3-[2-(3,4,4a,5,6,10b-Hexahydro-1,10-phenanthrolin-1(2H)-ylmethyl)-1H-benzimidazol-1-yl]-1-propanamine], the IC50 at human CXCR4 is 126 nM; in the data set with HIV-1 IIIB (setting [3]) it was 0.22 µM. Also, the IC50 at 96 h in data set [1] (setting [4]) was above 100000 nM.
For `CN1CCN(c2cccc3[nH]c(CN4CCC[C@@H]5CCc6cccnc6[C@H]54)nc23)CC1` (racemic) [Example 32, (trans)-1-{[4-(4-Methyl-1-piperazinyl)-1H-benzimidazol-2-yl]methyl}-1,2,3,4,4a,5,6,10b-octahydro-1,10-phenanthroline trifluoroacetate] the same measures were 479 nM, 0.26 µM and above 10000 nM.
On the same counts, the results for `CN1CCCC(Cn2c(CN3CCC[C@H]4CCc5cccnc5[C@H]43)nc3ccccc32)C1` (mixture of isomers) [Example 13, (cis)-1-({1-[(1-Methyl-3-piperidinyl)methyl]-1H-benzimidazol-2-yl}methyl)-1,2,3,4,4a,5,6,10b-octahydro-1,10-phenanthroline] are 7.59 nM, 0.05 µM and above 100000 nM.
On the same counts, the results for `CN(C)CCCn1c(CN2CCC[C@H]3CCc4cccnc4[C@@H]32)nc2ccccc21` (stereo in doubt) [Example 10A, (3-{2-[(4aR,10bR)-3,4,4a,5,6,10b-Hexahydro-1,10-phenanthrolin-1(2H)-ylmethyl]-1H-benzimidazol-1-yl}propyl)dimethylamine] are 182 nM, 0.33 µM and above 100000 nM.
